According to US20060013804A1, “Modulation of stem cell differentiation by modulation of caspase-3 activity” (Ottawa Health Research Institute, priority 2002, published 2006):
Entries after “also recorded” stand apart in the source; their conditions may differ.

Tests used:
[1] = test system: clonally-derived CD1 neurospheres; assay: Neurite extensions / morphology of differentiating neurospheres; format: cell-based, mouse; conditions: differentiation media up to 5 d, 2.0 μM inhibitor, vs DMSO
Procedure: (§1) Neurospheres were sub-cultured no more than once per collection. The differentiation of neurospheres was initated by plating spheres on poly-L-ornithine coated plates in NeuroCult Differentiation Medium in the absence of bFGF, as per manufacturer's instructions. […] All cultures received fresh media and inhibitor every 24 h for the duration of the experiment. Neurospheres from caspase 3 null embryos (Fernando, P., et al., (2002) Proc Natl Acad Sci USA 99, 11025-11030) were cultured as described above.
Immunocytochemistry: Neurospheres were collected at selected time points, fixed in 4% paraformaldehyde and prepared for immunostaining as previously described (Fernando, P., et al., (2002) Proc Natl Acad Sci USA 99, 11025-11030)). The primary antibody concentrations for anti-nestin, -GFAP, -MBP and -active caspase 3 (BioVision, USA) were titrated on wildtype CD1 neurospheres prior to their experimental use. These antibodies were visualized by counterstaining with either FITC or Cy3 conjugated secondary antibodies (Chemicon USA). Nuclei were localized with 4′,6-Diamidino-2 phenylindole (DAPI) (Sigma, USA). Cells were visualized using either an Axiovert 100 for transmission microscopy or Axioplan 2 for fluorescent microscopy (Zeiss, Germany) at selected magnifications. Captured images were processed using AxioVision Viewer 3.0 software.
Quantitation of Neurite Extensions: Neurites from differentiating neurospheres were estimated from a total of 6-8 neurospheres per condition over three independent experiments. To quantitated neuritis, the average diameter of an individual neurosphere was estimated from the vertical and horizontal distance. The number of extensions leaving the neurosphere body were then counted and an ratio of neurosphere extensions:average neurosphere diameter was calculated for each. All measurements including neurosphere diameter were evaluated using Scion Image.

CD1 neurosphere cells = assay: Annexin-V-PI flow cytometry of differentiating neurosphere cells; format: cell-based, mouse
Procedure: as §1
Flow Cytometry: Annexin-V-propidium iodide (PI) analysis of apoptotic and nectrotic cells was performed using an Annexin-V-FLUOS staining kit (Roche, USA). Analyses were performed using a Beckman-Coulter ALTRA flow cytometer. To detect Annexin-V and PI positive cells, flow cytometric channels were gated using cells without stain, stained with PI alone and stained with Annexin-V alone. Cells that had dissociated from their neurosphere bodies were gently collected without excessive disruption of the sphere/cell body. These cells were chosen for flow cytometry analyses. Each sample was gated to control for cellular debris.
As in most developmental processes, a population of cells is required to undergo apoptosis prior to the differentiation of a separate pool of cells. Clearly, the inhibition of caspase 3 may adversely affect this process. To address this issue, we measured the degree of apoptosis that occurred during differentiation in caspase 3 inhibited and uninhibited cells using the specific caspase 3 peptide inhibitor zDEVD.fmk and Annexin V-propidium iodide (PI) staining coupled to cytometric analyses (FIG. 15). Annexin V detects cells that are either apoptotic or necrotic whereas propidium iodide is able to detect necrotic cells. Together, Annexin-V-PI analyses identify the population of cells that are apoptotic, i.e. Annexin-V positive/PI negative. To control for the heterogeneity of cells within neurospheres as described previously (Bez et al., (2003) Brain Res 993, 18-29), we performed our analyses on cells that had dissociated from the neurosphere. […]

COC(=O)CC[C@H](NC(=O)[C@H](CC(=O)OC)NC(=O)OCc1ccccc1)C(=O)N[C@H](C(=O)N[C@@H](CC(=O)OC)C(=O)CF)C(C)C [z-DEVD.fmk]
neurite extensions / morphological changes [1]: dramatic reduction in the formation of these projections; also recorded: absent | Annexin-V positive/PI positive cell population (CD1 neurosphere cells; 12 h in differentiation media, cells dissociated from neurosphere): approximately 27% | level of apoptosis (Annexin-V-PI) (CD1 neurosphere cells; 24 h in differentiation media): 33% | effect on apoptosis during neurosphere differentiation (CD1 neurosphere cells; inhibited relative to uninhibited cells): did not affect apoptosis
